Measured values published in ChEMBL document CHEMBL3751833, “Discovery of potent aryl-substituted 3-[(3-methylpyridine-2-carbonyl) amino]-2,4-dimethyl-benzoic acid EP4 antagonists with improved pharmacokinetic profile” (Bioorg Med Chem Lett, 2016).
≈ marks a conversion by molar mass, not a printed value. Calls of active or inactive are those of the source. The calls are words filed in the database; no cut-off is given here.

How the values were obtained:
[1] = Aqueous solubility of compound at pH 6 after 20 hrs by HPLC analysis; assay type: physicochemical
[2] = molecular target: T1, Prostaglandin E2 receptor EP4 subtype (Homo sapiens, UniProt P35408); experiment: Antagonist activity at human EP4 receptor expressed in HEK293 cells assessed as inhibition of PGE2-stimulated cAMP production after 1 hr by HTRF assay; assay type: functional, cell-based
[3] = (§1) Oral bioavailability in rat at 5 mg/kg; assay type: ADME, organism-based; details: in vivo
[4] = molecular target: T1, Prostaglandin E2 receptor EP4 subtype; experiment: Antagonist activity at EP4 receptor in LPS-stimulated human whole blood assessed as inhibition of PGE2-induced TNF-alpha release pretreated for 30 mins followed by addition of PGE2 measured after 20 to 24 hrs by immunoassay; assay type: tissue-based
[5] = (§2) AUC in rat at 5 mg/kg, po; assay type: ADME, organism-based; details: in vivo
[6] = Clearance in rat at 1 mg/kg, iv; assay type: ADME, organism-based; details: in vivo
[7] = Oral bioavailability in rat; assay type: ADME, organism-based; details: in vivo
[8] = molecular target: Muscarinic acetylcholine receptor M2 (Homo sapiens) (UniProt P08172); experiment: Inhibition of human muscarinic M2 receptor at 10 uM
[9] = molecular target: Cytochrome P450 2C9 (Homo sapiens, UniProt P11712); experiment: Inhibition of CYP2C9 (unknown origin); assay type: ADME
[10] = molecular target: Cytochrome P450 2C19 (Homo sapiens, UniProt P33261); experiment: Inhibition of CYP2C19 (unknown origin); assay type: ADME
[11] = Volume of distribution at steady state in rat at 1 mg/kg, iv and 5 mg/kg, po; assay type: ADME, organism-based; details: in vivo, read-out: Vdss
[12] = Clearance in dog at 1 mg/kg, iv; assay type: ADME, organism-based, Canis lupus familiaris; details: in vivo
[13] = molecular target: D(1A) dopamine receptor (Homo sapiens) (UniProt P21728); experiment: Inhibition of human dopamine D1 receptor at 10 uM
[14] = molecular target: Cytochrome P450 2B6 (Homo sapiens, UniProt P20813); experiment: Inhibition of CYP2B6 (unknown origin); assay type: ADME
[15] = system: Rattus norvegicus; experiment: Antiinflammatory activity in adjuvant-induced arthritis rat model assessed as inhibition of paw swelling at 10 and 30 mg/kg administered 15 days post adjuvant challenge; assay type: functional, organism-based
[16] = AUC in dog at 5 mg/kg, po; assay type: ADME, organism-based, Canis lupus familiaris; details: in vivo
[17] = molecular target: Adrenergic receptor alpha-2 (Rattus norvegicus) (UniProt P22086+P19328+P22909); experiment: Inhibition of rat alpha-2 adrenergic receptor at 10 uM
[18] = molecular target: L-type calcium channel, dihydropyridine binding site (Homo sapiens, UniProt O60840+Q01668+Q13698+Q13936); experiment: Inhibition of L-type calcium channel dihydropyridine binding site (unknown origin) at 10 uM; assay type: protein assay
[19] = molecular target: L-type calcium channel, verapamil binding site (Homo sapiens, UniProt O60840+Q01668+Q13698+Q13936); experiment: Inhibition of L-type calcium channel verapamil binding site (unknown origin) at 10 uM; assay type: protein assay
[20] = system: Rattus norvegicus; experiment: Analgesic activity in […]-induced rat joint pain model assessed as inhibition of differential weight bearing at 5 mg/kg, po measured 30 mins post dose; assay type: functional, organism-based
[21] = system: Rattus norvegicus; experiment: Analgesic activity in […]-induced po dosed rat joint pain model assessed as inhibition of differential weight bearing measured 30 mins post dose; assay type: functional, organism-based
[22] = molecular target: Prostaglandin E2 receptor EP3 subtype (Homo sapiens, UniProt P43115); experiment: Binding affinity to human EP3 receptor
[23] = Half life in dog at 5 mg/kg, po; assay type: ADME, organism-based, Canis lupus familiaris; details: in vivo
[24] = molecular target: D(2) dopamine receptor (Homo sapiens) (UniProt P14416); experiment: Inhibition of human dopamine D2s receptor at 10 uM
[25] = molecular target: Acetylcholinesterase (Homo sapiens) (UniProt P22303); experiment: Inhibition of human acetylcholinesterase at 10 uM
[26] = molecular target: Voltage-gated inwardly rectifying potassium channel KCNH2 (Homo sapiens, UniProt Q12809); experiment: Displacement of [3H]astemizole from human ERG upto 100 uM
[27] = molecular target: Adenosine receptor A3 (Homo sapiens) (UniProt P0DMS8); experiment: Inhibition of human adenosine A3 receptor at 10 uM
[28] = Oral bioavailability in dog at 5 mg/kg; assay type: ADME, organism-based, Canis lupus familiaris; details: in vivo
[29] = Half life in rat at 5 mg/kg, po; assay type: ADME, organism-based; details: in vivo
[30] = molecular target: Cytochrome P450 3A4 (Homo sapiens, UniProt P08684); experiment: Inhibition of CYP3A4 (unknown origin); assay type: ADME
[31] = molecular target: Cytochrome P450 2D6 (Homo sapiens, UniProt P10635); experiment: Inhibition of CYP2D6 (unknown origin); assay type: ADME
[32] = molecular target: Cytochrome P450 1A2 (Homo sapiens, UniProt P05177); experiment: Inhibition of CYP1A2 (unknown origin); assay type: ADME
[33] = molecular target: Adrenergic receptor alpha-1 (Rattus norvegicus) (UniProt P15823+P23944+P43140); experiment: Inhibition of rat alpha-1 adrenergic receptor at 10 uM
[34] = molecular target: Prostaglandin E2 receptor EP2 subtype (Homo sapiens, UniProt P43116); experiment: Binding affinity to human EP2 receptor
[35] = molecular target: Mu-type opioid receptor (Homo sapiens) (UniProt P35372); experiment: Inhibition of human mu opoid receptor at 10 uM
[36] = species: Rattus norvegicus; experiment: Inhibition of rat chloride channel at 10 uM
[37] = molecular target: Beta-2 adrenergic receptor (Homo sapiens) (UniProt P07550); experiment: Inhibition of human beta-2 adrenergic receptor at 10 uM
[38] = molecular target: Cytochrome P450 2C8 (Homo sapiens, UniProt P10632); experiment: Inhibition of CYP2C8 (unknown origin); assay type: ADME
[39] = Cmax in rat at 5 mg/kg, po; assay type: ADME, organism-based; parameters: dose 5 mg/kg, route oral; details: in vivo
[40] = molecular target: Sodium-dependent noradrenaline transporter (Homo sapiens) (UniProt P23975); experiment: Inhibition of human Noradrenaline transporter at 10 uM
[41] = Volume of distribution at steady state in dog at 1 mg/kg, iv and 5 mg/kg, po; assay type: ADME, organism-based, Canis lupus familiaris; details: in vivo, read-out: Vdss
[42] = molecular target: Histamine H1 receptor (Homo sapiens) (UniProt P35367); experiment: Inhibition of human histamine H1 receptor at 10 uM
[43] = molecular target: Beta-1 adrenergic receptor (Homo sapiens) (UniProt P08588); experiment: Inhibition of human beta-1 adrenergic receptor at 10 uM
[44] = molecular target: Prostaglandin E2 receptor EP1 subtype (Homo sapiens, UniProt P34995); experiment: Binding affinity to human EP1 receptor
[45] = Cmax in dog at 5 mg/kg, po; assay type: ADME, organism-based, Canis lupus familiaris; parameters: dose 5 mg/kg, route oral; details: in vivo
[46] = molecular target: L-type calcium channel, diltiazem binding site (Homo sapiens, UniProt O60840+Q01668+Q13698+Q13936); experiment: Inhibition of L-type calcium channel diltiazem binding site (unknown origin) at 10 uM; assay type: protein assay
[47] = system: Rattus norvegicus; experiment: Antiinflammatory activity in adjuvant-induced arthritis rat model assessed as inhibition of paw swelling at 10 mg/kg administered 15 days post adjuvant challenge; assay type: functional, organism-based
[48] = system: Rattus norvegicus; experiment: as §1; assay type: ADME, organism-based; details: in vivo
[49] = system: Rattus norvegicus; experiment: as §2; assay type: ADME, organism-based; details: in vivo

T1 sequence (P35408 whole entry): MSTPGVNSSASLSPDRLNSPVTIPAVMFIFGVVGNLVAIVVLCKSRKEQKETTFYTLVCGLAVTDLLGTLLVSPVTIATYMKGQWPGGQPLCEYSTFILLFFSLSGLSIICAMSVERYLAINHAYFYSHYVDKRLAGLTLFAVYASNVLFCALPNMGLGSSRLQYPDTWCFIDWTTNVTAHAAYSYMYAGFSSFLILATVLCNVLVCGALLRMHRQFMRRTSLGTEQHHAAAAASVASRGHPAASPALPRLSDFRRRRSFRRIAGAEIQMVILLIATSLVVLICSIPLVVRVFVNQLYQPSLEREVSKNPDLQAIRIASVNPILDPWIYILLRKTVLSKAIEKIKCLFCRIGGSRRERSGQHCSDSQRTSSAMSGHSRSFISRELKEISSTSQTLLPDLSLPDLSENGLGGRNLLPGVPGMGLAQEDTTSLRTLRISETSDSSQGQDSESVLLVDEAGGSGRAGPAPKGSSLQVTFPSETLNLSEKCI
Sequence of Prostaglandin E2 receptor EP1 subtype (P34995 whole entry): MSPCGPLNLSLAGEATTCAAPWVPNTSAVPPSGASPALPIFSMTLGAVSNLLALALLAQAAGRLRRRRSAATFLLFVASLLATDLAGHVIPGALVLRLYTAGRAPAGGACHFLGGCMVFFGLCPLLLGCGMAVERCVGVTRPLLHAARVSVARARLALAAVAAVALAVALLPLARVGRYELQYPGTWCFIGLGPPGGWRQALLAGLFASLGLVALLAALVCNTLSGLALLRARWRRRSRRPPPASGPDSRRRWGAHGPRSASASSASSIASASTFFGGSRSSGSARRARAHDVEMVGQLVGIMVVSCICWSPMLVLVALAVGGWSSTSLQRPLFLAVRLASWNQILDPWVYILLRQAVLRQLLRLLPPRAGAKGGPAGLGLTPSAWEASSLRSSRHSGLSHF
Sequence of Prostaglandin E2 receptor EP2 subtype (P43116 whole entry): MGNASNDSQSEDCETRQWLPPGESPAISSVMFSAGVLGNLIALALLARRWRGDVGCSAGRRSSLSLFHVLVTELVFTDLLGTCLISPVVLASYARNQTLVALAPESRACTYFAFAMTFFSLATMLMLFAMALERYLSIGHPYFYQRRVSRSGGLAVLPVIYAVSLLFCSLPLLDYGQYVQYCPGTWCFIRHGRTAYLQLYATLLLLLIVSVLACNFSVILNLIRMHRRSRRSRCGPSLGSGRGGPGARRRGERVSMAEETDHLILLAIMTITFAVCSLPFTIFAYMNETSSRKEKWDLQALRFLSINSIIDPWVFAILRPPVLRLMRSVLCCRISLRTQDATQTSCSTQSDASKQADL
Sequence of Prostaglandin E2 receptor EP3 subtype (P43115 whole entry): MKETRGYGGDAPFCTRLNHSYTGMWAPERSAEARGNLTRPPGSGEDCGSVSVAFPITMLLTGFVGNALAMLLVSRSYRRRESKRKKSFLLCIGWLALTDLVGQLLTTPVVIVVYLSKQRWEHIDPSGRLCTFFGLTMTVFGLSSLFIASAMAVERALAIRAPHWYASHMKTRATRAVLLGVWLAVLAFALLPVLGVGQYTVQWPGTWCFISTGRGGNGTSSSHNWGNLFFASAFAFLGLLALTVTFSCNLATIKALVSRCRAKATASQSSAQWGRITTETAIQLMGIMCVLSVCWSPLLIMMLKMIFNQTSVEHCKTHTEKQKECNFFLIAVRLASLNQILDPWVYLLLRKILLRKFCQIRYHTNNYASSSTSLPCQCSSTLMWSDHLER
Sequence of Voltage-gated inwardly rectifying potassium channel KCNH2 (Q12809 whole entry): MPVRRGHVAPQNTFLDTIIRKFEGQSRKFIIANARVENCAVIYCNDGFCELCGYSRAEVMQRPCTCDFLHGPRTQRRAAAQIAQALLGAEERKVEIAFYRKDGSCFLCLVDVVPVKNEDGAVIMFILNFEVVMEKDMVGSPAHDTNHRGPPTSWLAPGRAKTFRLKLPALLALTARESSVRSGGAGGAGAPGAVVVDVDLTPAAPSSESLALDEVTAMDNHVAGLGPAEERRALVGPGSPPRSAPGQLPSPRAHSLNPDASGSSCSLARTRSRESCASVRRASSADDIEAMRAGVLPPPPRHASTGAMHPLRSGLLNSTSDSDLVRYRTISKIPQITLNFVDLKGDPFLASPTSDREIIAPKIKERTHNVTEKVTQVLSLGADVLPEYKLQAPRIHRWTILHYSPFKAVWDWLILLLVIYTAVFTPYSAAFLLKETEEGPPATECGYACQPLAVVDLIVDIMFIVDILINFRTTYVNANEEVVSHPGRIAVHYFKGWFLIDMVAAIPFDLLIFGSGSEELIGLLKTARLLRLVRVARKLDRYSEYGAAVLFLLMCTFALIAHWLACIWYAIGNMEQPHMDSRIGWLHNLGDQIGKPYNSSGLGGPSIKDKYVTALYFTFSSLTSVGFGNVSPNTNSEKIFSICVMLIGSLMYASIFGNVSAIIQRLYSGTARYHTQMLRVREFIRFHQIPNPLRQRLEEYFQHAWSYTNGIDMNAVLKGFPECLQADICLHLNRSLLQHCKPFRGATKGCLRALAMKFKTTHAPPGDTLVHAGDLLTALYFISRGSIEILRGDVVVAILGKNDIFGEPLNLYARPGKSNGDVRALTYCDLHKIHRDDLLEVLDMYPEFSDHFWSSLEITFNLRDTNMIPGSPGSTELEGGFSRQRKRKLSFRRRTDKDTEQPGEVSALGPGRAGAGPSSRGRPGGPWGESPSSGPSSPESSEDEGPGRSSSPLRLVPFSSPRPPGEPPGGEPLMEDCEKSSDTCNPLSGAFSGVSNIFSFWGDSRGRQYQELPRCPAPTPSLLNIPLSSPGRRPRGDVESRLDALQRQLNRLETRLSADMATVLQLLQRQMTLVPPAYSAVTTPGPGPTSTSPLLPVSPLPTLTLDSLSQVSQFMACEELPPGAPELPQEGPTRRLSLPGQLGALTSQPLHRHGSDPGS
Sequence of Mu-type opioid receptor (Homo sapiens) (P35372 whole entry): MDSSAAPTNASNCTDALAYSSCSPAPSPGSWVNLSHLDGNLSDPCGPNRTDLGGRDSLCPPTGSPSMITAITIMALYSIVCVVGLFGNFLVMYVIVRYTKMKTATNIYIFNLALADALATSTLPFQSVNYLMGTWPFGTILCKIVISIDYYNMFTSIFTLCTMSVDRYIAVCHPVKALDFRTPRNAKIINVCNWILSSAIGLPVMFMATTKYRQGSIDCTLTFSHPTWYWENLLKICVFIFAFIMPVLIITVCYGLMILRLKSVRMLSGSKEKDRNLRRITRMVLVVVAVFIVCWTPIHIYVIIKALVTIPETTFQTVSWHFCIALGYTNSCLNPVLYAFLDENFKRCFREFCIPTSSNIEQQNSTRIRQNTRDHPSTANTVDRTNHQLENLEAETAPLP
Sequence of Cytochrome P450 2B6 (P20813 whole entry): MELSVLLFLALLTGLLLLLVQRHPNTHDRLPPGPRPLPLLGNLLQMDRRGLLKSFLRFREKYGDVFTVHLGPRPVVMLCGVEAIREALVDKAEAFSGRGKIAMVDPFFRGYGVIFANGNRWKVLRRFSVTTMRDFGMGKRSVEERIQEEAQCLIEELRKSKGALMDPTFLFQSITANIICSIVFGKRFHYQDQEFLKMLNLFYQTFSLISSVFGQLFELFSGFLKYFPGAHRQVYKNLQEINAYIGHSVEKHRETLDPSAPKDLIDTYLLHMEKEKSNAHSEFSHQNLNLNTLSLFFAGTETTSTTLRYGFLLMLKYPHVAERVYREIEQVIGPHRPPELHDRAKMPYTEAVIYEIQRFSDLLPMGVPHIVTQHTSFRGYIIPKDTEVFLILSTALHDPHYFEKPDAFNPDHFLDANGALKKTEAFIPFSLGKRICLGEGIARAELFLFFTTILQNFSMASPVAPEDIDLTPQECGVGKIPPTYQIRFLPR
Sequence of Beta-1 adrenergic receptor (Homo sapiens) (P08588 whole entry, looked up): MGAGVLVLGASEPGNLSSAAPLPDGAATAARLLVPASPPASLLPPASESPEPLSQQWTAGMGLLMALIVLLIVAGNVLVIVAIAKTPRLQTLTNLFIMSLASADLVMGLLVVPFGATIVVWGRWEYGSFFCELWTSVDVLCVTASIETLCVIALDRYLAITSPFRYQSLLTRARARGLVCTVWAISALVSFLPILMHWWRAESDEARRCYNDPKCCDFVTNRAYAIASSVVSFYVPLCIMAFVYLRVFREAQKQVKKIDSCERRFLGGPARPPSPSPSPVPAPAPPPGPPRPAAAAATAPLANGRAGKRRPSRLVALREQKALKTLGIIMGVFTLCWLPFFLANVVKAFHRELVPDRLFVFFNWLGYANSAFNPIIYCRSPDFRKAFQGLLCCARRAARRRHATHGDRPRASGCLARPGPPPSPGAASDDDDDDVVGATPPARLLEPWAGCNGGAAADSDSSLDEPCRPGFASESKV
Sequence of Muscarinic acetylcholine receptor M2 (Homo sapiens) (P08172 whole entry): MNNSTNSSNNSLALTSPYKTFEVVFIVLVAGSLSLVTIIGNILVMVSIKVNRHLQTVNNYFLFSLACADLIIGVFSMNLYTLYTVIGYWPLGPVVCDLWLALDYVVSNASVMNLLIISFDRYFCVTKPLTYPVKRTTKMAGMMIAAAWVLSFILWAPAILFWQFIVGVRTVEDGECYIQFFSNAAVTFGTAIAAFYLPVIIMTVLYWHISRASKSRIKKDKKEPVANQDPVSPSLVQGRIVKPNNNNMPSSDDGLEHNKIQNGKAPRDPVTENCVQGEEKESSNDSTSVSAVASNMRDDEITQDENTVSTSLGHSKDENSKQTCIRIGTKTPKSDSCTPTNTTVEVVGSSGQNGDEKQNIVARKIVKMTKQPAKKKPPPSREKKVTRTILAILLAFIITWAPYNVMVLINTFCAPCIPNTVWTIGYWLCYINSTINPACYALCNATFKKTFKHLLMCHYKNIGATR
Sequence of Adenosine receptor A3 (Homo sapiens) (P0DMS8 whole entry): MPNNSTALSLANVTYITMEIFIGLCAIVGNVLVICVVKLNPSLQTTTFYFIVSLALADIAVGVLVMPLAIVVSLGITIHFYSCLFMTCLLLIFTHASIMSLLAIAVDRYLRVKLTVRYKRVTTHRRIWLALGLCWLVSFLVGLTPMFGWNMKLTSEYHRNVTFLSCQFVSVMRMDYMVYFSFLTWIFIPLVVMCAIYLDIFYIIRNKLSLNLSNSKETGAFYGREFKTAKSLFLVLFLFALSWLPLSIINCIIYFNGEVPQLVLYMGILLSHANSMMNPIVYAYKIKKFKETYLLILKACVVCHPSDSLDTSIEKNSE

Compound: Cc1ccc(-c2cccc(CO)c2)cc1C(=O)Nc1c(C)cc(C(=O)O)cc1C
- solubility at 20 h [1]: 31 µg/mL (≈ 79.6 µM)
- IC50 [2]: 0.00028 µM
- bioavailability [3]: 13%
- IC50 [4]: 0.0187 µM
- AUC [5]: 88 ng·h/mL
- clearance [6]: 71 mL/min/kg

Compound: Cc1ccc(C(=O)O)c(C)c1NC(=O)c1cc(-c2cccc(Cl)c2)cc2ccccc12
- bioavailability [7]: 100%

Compound: Cc1ccc(-c2cccc(CO)c2)nc1C(=O)Nc1c(C)ccc(C(=O)O)c1C
- inhibition [8]: 11%
- IC50 [9]: > 10 µM
- IC50 [10]: > 10 µM
- Vd [11]: 0.16 L/kg
- clearance [12]: 3.7 mL/min/kg
- inhibition [13]: 0%
- IC50 [14]: > 10 µM
- inhibition [15]: Active
- AUC [16]: 10900 ng·h/mL
- inhibition [17]: -5%
- inhibition at 10 µM [18]: -46%
- inhibition at 10 µM [19]: -10%
- inhibition [20]: Active
- inhibition [21]: Dose-dependent effect
- IC50 [22]: > 25 µM
- Ki [22]: > 14 µM
- half-life [23]: 1.1 h
- inhibition [24]: -3%
- inhibition [25]: -2%
- inhibition (INH) [26]: Not Active
- inhibition [27]: -7%
- bioavailability [28]: 48%
- solubility at 20 h [1]: 242 µg/mL (≈ 620 µM)
- half-life [29]: 2.1 h
- bioavailability [3]: 22%
- IC50 [30]: > 10 µM
- IC50 [31]: > 10 µM
- IC50 [32]: > 10 µM
- inhibition [33]: -3%
- IC50 [34]: > 25 µM
- Ki [34]: > 18.9 µM
- inhibition [35]: -6%
- inhibition [36]: -6%
- IC50 [4]: 0.0387 µM
- inhibition [37]: 9%
- AUC [5]: 8520 ng·h/mL
- IC50 [38]: > 10 µM
- clearance [6]: 2.2 mL/min/kg
- Cmax [39]: 1640 ng/mL
- inhibition [40]: -1%
- Vd [41]: 0.97 L/kg
- inhibition [42]: 5%
- inhibition [43]: 1%
- IC50 [44]: > 25 µM
- Ki [44]: > 17.5 µM
- Cmax [45]: 3820 ng/mL
- inhibition at 10 µM [46]: -7%

Compound: Cc1ccc(-c2cccc(CO)c2)nc1C(=O)Nc1c(C)cc(C(=O)O)cc1C
- solubility at 20 h [1]: 14 µg/mL (≈ 35.9 µM)
- IC50 [2]: 0.00067 µM
- bioavailability [3]: 36%
- IC50 [4]: 0.0563 µM
- AUC [5]: 4330 ng·h/mL
- clearance [6]: 7 mL/min/kg

Compound: Cc1ccc(-c2cccc(CO)c2)cc1C(=O)Nc1c(C)ccc(C(=O)O)c1C
- solubility at 20 h [1]: 783 µg/mL (≈ 2010 µM)
- bioavailability [3]: 7%
- IC50 [4]: 0.0595 µM
- AUC [5]: 375 ng·h/mL
- clearance [6]: 15 mL/min/kg

Compound: O=C(O)Cc1ccccc1Nc1c(Cl)cccc1Cl
- inhibition [20]: Active
- inhibition [47]: Active

Compound: Cc1cc(C(=O)O)cc(C)c1NC(=O)c1cc(-c2cccc(CO)c2)ccc1F
- solubility at 20 h [1]: 774 µg/mL (≈ 1970 µM)
- IC50 [2]: 0.00073 µM
- bioavailability [3]: 12%
- IC50 [4]: 0.0478 µM
- AUC [5]: 105 ng·h/mL
- clearance [6]: 91 mL/min/kg

Compound: Cc1ccc(-c2cccc(Cl)c2)nc1C(=O)Nc1c(C)ccc(C(=O)O)c1C
- IC50 [2]: 0.00156 µM
- IC50 [4]: 0.637 µM

Compound: Cc1cc(C(=O)O)cc(C)c1NC(=O)c1nc(-c2cccc(CO)c2)ccc1C(F)(F)F
- solubility at 20 h [1]: 23 µg/mL (≈ 51.8 µM)
- IC50 [2]: 0.00067 µM
- bioavailability [3]: 16%
- IC50 [4]: 0.121 µM
- AUC [5]: 243 ng·h/mL
- clearance [6]: 54 mL/min/kg

Compound: Cc1ccc(C(=O)O)c(C)c1NC(=O)c1nc(-c2cccc(CO)c2)ccc1C(F)(F)F
- solubility at 20 h [1]: 29 µg/mL (≈ 65.3 µM)
- IC50 [2]: 0.00194 µM
- bioavailability [3]: 13%
- IC50 [4]: 0.059 µM
- AUC [5]: 1540 ng·h/mL
- clearance [6]: 7 mL/min/kg

Compound: Cc1ccc(C(=O)O)c(C)c1NC(=O)c1cc(-c2cccc(CO)c2)cc2ccccc12
- bioavailability [7]: 6%

Compound: Cc1ccc(C(=O)O)c(C)c1NC(=O)c1cc(-c2cccc(CO)c2)ccc1F
- solubility at 20 h [1]: 709 µg/mL (≈ 1800 µM)
- IC50 [2]: 0.00449 µM
- F [48]: 11%
- IC50 [4]: 0.0724 µM
- AUC [49]: 994 ng·h/mL
